Experimental data reported in patent US20080014247A1, “METAL-CONTAINING FORMULATIONS AND METHODS OF USE” (Nucryst Pharmaceuticals, priority 2006, published 2008).

Legend:
Prot. mirabilis = assay: Minimal bactericidal concentration (MBC) assay; format: cell-based, Proteus mirabilis; conditions: isolate NP405
Description: (§1) Minimal bactericidal concentration (MBC) assay—Overnight-grown MIC plates, prepared as described in Example 16, were evaluated to determine the MIC. Culture was then sampled from wells at and near the MIC using sterile inoculating loops, and transferred to fresh MHA plates to determine if viable bacteria remained. […] The MBC was determined as the well in the MIC plate which contained the lowest concentration of silver yielding no bacterial growth on the MHA plate.

Pseudomonas aeruginosa = assay: MIC assay (microdilution); format: cell-based
Ser. marcescens = assay: Minimal bactericidal concentration (MBC) assay; format: cell-based, Serratia marcescens
Description: as §1

Proteus mirabilis = assay: MIC assay (microdilution); format: cell-based; conditions: isolate NP405
Citrobacter freundii = assay: MIC assay (microdilution); format: cell-based; conditions: isolate NP410
Staph epidermidis = assay: Minimal bactericidal concentration (MBC) assay; format: cell-based, Staphylococcus epidermidis
Description: as §1

Staph. aureus = assay: Minimal bactericidal concentration (MBC) assay; format: cell-based, Staphylococcus aureus
Description: as §1

E. coli = assay: Minimal bactericidal concentration (MBC) assay; format: cell-based, Escherichia coli
Description: as §1

B dolosa = assay: Minimal bactericidal concentration (MBC) assay; format: cell-based, Burkholderia dolosa
Description: as §1

K. pneumoniae = assay: Minimal bactericidal concentration (MBC) assay; format: cell-based, Klebsiella pneumoniae
Description: as §1

[1] = test system: Mycobacterium tuberculosis H37Ra (ATCC 25177); assay: microbe, parasite or virus in culture; format: cell-based
[2] = test system: Staphylococcus epidermidis; assay: MIC assay (microdilution); format: cell-based
Enterobacter cloacae = assay: MIC assay (microdilution); format: cell-based
C. freundii = assay: Minimal bactericidal concentration (MBC) assay; format: cell-based, Citrobacter freundii; conditions: isolate NP410
Description: as §1

Escherichia coli = assay: MIC assay (microdilution); format: cell-based
Burkholderia multivorans = assay: MIC assay (microdilution); format: cell-based
Strep. pyogenes = assay: Minimal bactericidal concentration (MBC) assay; format: cell-based, Streptococcus pyogenes
Description: as §1

Serratia marcescens = assay: MIC assay (microdilution); format: cell-based
Shigella flexneri = assay: MIC assay (microdilution); format: cell-based; conditions: ATCC 12022
Streptococcus pyogenes = assay: MIC assay (microdilution); format: cell-based
Streptococcus pneumoniae = assay: MIC assay (microdilution); format: cell-based; conditions: lactate solutions
Burkholderia dolosa = assay: MIC assay (microdilution); format: cell-based
Staphylococcus aureus = assay: MIC assay (microdilution); format: cell-based
B. multivorans = assay: Minimal bactericidal concentration (MBC) assay; format: cell-based, Burkholderia multivorans
Description: as §1

Klebsiella pneumoniae = assay: MIC assay (microdilution); format: cell-based
Ps. aeruginosa = assay: Minimal bactericidal concentration (MBC) assay; format: cell-based, Pseudomonas aeruginosa
Description: as §1

Compound: O=[N+]([O-])[O-].[Ag+] [AgNO3, silver nitrate]
- MBC (Prot. mirabilis): 13 parts silver per million
- MIC (Pseudomonas aeruginosa; ATCC 9027): 1 parts silver per million
- MIC (Pseudomonas aeruginosa; ATCC 27317): 2 parts silver per million
- MIC (Pseudomonas aeruginosa; P. aerug (ATCC), lactate solutions): 3 µg/mL
- MIC (Pseudomonas aeruginosa; P. aerug. (clin.), lactate solutions): 3 µg/mL
- MIC (Pseudomonas aeruginosa; isolate NP201): 1 parts silver per million
- MIC (Pseudomonas aeruginosa; isolate NP204): 1 parts silver per million
- MIC (Pseudomonas aeruginosa; isolate NP206): 1 parts silver per million
- MIC (Pseudomonas aeruginosa; isolate NP212, formulation type Lactate): 2 ppm
- MIC (Pseudomonas aeruginosa; isolate NP212, formulation type Water/Lecithin): 3 ppm
- MIC (Pseudomonas aeruginosa; isolate NP212, formulation type Water/PVA): 3 ppm
- MBC (Ser. marcescens; isolate NP402): 6 parts silver per million
- MBC (Ser. marcescens; isolate NP402, second entry): 6 parts silver per million
- MBC (Ser. marcescens; isolate NP408): 6 parts silver per million
- MBC (Ser. marcescens; isolate NP408, second entry): 11 parts silver per million
- MIC (Proteus mirabilis): 6 parts silver per million
- MIC (Citrobacter freundii): 3 parts silver per million
- MBC (Staph epidermidis; ATCC 12228): 3 parts silver per million
- MBC (Staph epidermidis; isolate NP136): 3 parts silver per million
- MBC (Staph. aureus; ATCC 6538): 6 parts silver per million
- MBC (Staph. aureus; ATCC 700699): 6 parts silver per million
- MBC (Staph. aureus; isolate NP101): 11 parts silver per million
- MBC (Staph. aureus; isolate NP102): 6 parts silver per million
- MBC (Staph. aureus; isolate NP103): 6 parts silver per million
- MBC (E. coli; ATCC 8739): 0.4 parts silver per million
- MBC (E. coli; ATCC 43745): 0.4 parts silver per million
- MBC (E. coli; isolate NP412): 1 parts silver per million
- MBC (B dolosa; isolate A3): 3 parts silver per million
- MBC (B dolosa; isolate A4): 2 parts silver per million
- MBC (K. pneumoniae; isolate NP401): 3 parts silver per million
- MBC (K. pneumoniae; isolate NP403): 6 parts silver per million
- MBC (K. pneumoniae; isolate NP403, second entry): 3 parts silver per million
- MBC (K. pneumoniae; isolate NP406): 1 parts silver per million
- MIC [1]: 2.5 μg/ml silver
- MIC ([2]; ATCC 12228): 3 parts silver per million
- MIC ([2]; S. epiderm (ATCC), lactate solutions): 3 µg/mL
- MIC ([2]; isolate NP136): 3 parts silver per million
- MIC (Enterobacter cloacae; aerobic +): 13 µg/mL
- MIC (Enterobacter cloacae; aerobic − (anaerobic)): 25 µg/mL
- MBC (C. freundii): 3 parts silver per million
- MIC (Escherichia coli; ATCC 8739): 0.4 parts silver per million
- MIC (Escherichia coli; ATCC 43745): 1 parts silver per million
- MIC (Escherichia coli; E. coli (ATCC), lactate solutions): 3 µg/mL
- MIC (Escherichia coli; isolate NP412): 1 parts silver per million
- MIC (Burkholderia multivorans; isolate B1): 3 parts silver per million
- MIC (Burkholderia multivorans; isolate B2): 3 parts silver per million
- MIC (Burkholderia multivorans; isolate B4): 2 parts silver per million
- MBC (Strep. pyogenes; isolate NP303): 10 parts silver per million
- MBC (Strep. pyogenes; isolate NP304): 21 parts silver per million
- MBC (Strep. pyogenes; isolate NP306): 21 parts silver per million
- MIC (Serratia marcescens; aerobic +): 6 µg/mL
- MIC (Serratia marcescens; aerobic − (anaerobic)): 13 µg/mL
- MIC (Serratia marcescens; isolate NP402): 6 parts silver per million
- MIC (Serratia marcescens; isolate NP402, second entry): 6 parts silver per million
- MIC (Serratia marcescens; isolate NP408): 6 parts silver per million
- MIC (Serratia marcescens; isolate NP408, second entry): 11 parts silver per million
- MIC (Shigella flexneri; formulation type Lactate): 2 ppm
- MIC (Shigella flexneri; formulation type Water/Lecithin): 2 ppm
- MIC (Shigella flexneri; formulation type Water/PVA): 1 ppm
- MIC (Streptococcus pyogenes; S. pyog (clin. 303), lactate solutions): 3 µg/mL
- MIC (Streptococcus pyogenes; S. pyog (clin. 304), lactate solutions): 5 µg/mL
- MIC (Streptococcus pyogenes; isolate NP303): 3 parts silver per million
- MIC (Streptococcus pyogenes; isolate NP304): 6 parts silver per million
- MIC (Streptococcus pyogenes; isolate NP306): 6 parts silver per million
- MIC (Streptococcus pneumoniae; S. pneumo (clin 314)): 11 µg/mL
- MIC (Streptococcus pneumoniae; S. pneumo (clin 315)): 21 µg/mL
- MIC (Burkholderia dolosa; isolate A3): 2 parts silver per million
- MIC (Burkholderia dolosa; isolate A4): 2 parts silver per million
- MIC (Staphylococcus aureus; ATCC 6538): 6 parts silver per million
- MIC (Staphylococcus aureus; ATCC 700699): 3 parts silver per million
- MIC (Staphylococcus aureus; S. aureus (ATCC), lactate solutions): 11 µg/mL
- MIC (Staphylococcus aureus; S. aureus (clin.), lactate solutions): 5 µg/mL
- MIC (Staphylococcus aureus; isolate NP101): 6 parts silver per million
- MIC (Staphylococcus aureus; isolate NP102): 6 parts silver per million
- MIC (Staphylococcus aureus; isolate NP103): 6 parts silver per million
- MBC (B. multivorans; isolate B1): 3 parts silver per million
- MBC (B. multivorans; isolate B2): 3 parts silver per million
- MBC (B. multivorans; isolate B4): 3 parts silver per million
- MIC (Klebsiella pneumoniae; aerobic +): 3 µg/mL
- MIC (Klebsiella pneumoniae; aerobic − (anaerobic)): 3 µg/mL
- MIC (Klebsiella pneumoniae; isolate NP401): 3 parts silver per million
- MIC (Klebsiella pneumoniae; isolate NP403): 6 parts silver per million
- MIC (Klebsiella pneumoniae; isolate NP403, second entry): 6 parts silver per million
- MIC (Klebsiella pneumoniae; isolate NP406): 1 parts silver per million
- MBC (Ps. aeruginosa; ATCC 27317): 3 parts silver per million
- MBC (Ps. aeruginosa; isolate NP201): 3 parts silver per million
- MBC (Ps. aeruginosa; isolate NP204): 3 parts silver per million
- MBC (Ps. aeruginosa; isolate NP206): 1 parts silver per million
